The text below walks through data of patent US20230152304A1 (SHENZHEN MINDRAY BIO-MEDICAL ELECTRONICS CO., LTD., priority 2020, published 2023).

In data set [1] the test system is platelet aggregation induced by COL. Kind of data set: Disaggregation over time of COL-induced platelet aggregation. The format is cell-based. As to conditions: FIG. 10; 10 mmol/L, pH 9.5, COL 0.05-20 mM, except lowest concentration. Here is the method:
(§1) Specifically, according to the method similar to Example 1, the amino group-containing compound (1-acetylguanidine) was added to a diluent to treat blood samples in which different concentrations of aggregation inducer were added. Then the samples were tested, in which the test was performed every 5 min after the treatment solution was added to each sample so as to obtain the change of disaggregation rates over time.
FIG. 9 and FIG. 10 show curve graphs of platelet aggregation tests induced by COL at different concentrations. The substantially same method as the above-mentioned was used, except that ADP was replaced by COL. The concentrations of COL were 0.05 mM, 0.1 mM, 0.5 mM, 1 mM, 5 mM, 10 mM and 20 mM, respectively.

Data set [2] can be described thus: pKa of the amino group of the compound. As to conditions: pKa. An excerpt:
For the compound having a plurality of amino groups/imino groups, the pKa of amino group described herein refers to the first dissociation constant, that is, pKa of amino group or imino group which firstly dissociates hydrogen ion.

Data set [3] relates to aggregated platelets induced by ADP. Kind of data set: Platelet disaggregation rate of blood samples with ADP-induced platelet aggregation (hematology analyzer, PLT_O).
Procedure: The compounds in Table 1 above were respectively added to a diluent used for a hematology analyzer to prepare blood sample diluents. […] Each of the compounds in Table 1 (at a final concentration 0.01 mol/L) was added to the diluent separately, pH was adjusted to 14, and the osmotic pressure was adjusted to 200 mOsm/L to obtain the treatment solution.
The venous blood of a healthy subject was collected into blood anticoagulant tubes for later use. Two aliquot blood samples (1 ml/sample) were taken. The above-mentioned diluent was added to one of the samples, the resulting solution was mixed evenly, and then the platelet count was detected in a hematology analyzer (Mindray BC-6000Plus) and recorded as: PLT_O (unaggregated). The platelet aggregation inducer ADP (at a final concentration of 0.01 mmol/L) was added to the other sample, and the resulting solution was mixed evenly. Platelets were aggregated 5 min later, at this time the above-mentioned diluent was added, and then the blood containing the aggregated platelets was detected by the hematology analyzer to obtain the platelet count, which was recorded as: PLT_O (aggregated). Another 1 ml of blood sample was taken, the platelet aggregation inducer ADP (at a final concentration of 0.01 mmol/L) was added, and the resulting solution was mixed evenly. The above-mentioned treatment solution was added 5 min later, the resulting solution was mixed evenly, and then the platelet count of the treated blood was detected by the hematology analyzer and was recorded as: PLT_O (disaggregated).
For data set [4], the system named is platelet aggregation induced by RIS. Kind of data set: Disaggregation over time of RIS-induced platelet aggregation. The format is cell-based. As to conditions: FIG. 12; 10 mmol/L, pH 9.5, RIS 0.15-3 mM. The method, then:
as §1
FIG. 11 and FIG. 12 show curve graphs of platelet aggregation tests induced by RIS at different concentrations. The substantially same method as the above-mentioned was used, except that ADP was replaced by RIS. The concentrations of RIS were 0.15 mM, 0.375 mM, 0.75 mM, 1.5 mM and 3 mM, respectively. […] In addition, the disaggregation effect of 1-acetylguanidine can reach the highest immediately for RIS at various concentrations, and remained relatively stable within 10 min. The rapid decrease in the disaggregation rate after 15 min was also because the blood in the samples was coagulated.

Data set [5] concerns platelet aggregation induced by THR. Kind of data set: Disaggregation over time of THR-induced platelet aggregation. The class given is cell-based. As to conditions: FIG. 8; 10 mmol/L, pH 9.5, THR 0.1-0.35 U. Here is the method:
as §1
Similarly, FIG. 7 and FIG. 8 show curve graphs of platelet aggregation tests induced by THR at different concentrations. The substantially same method as the above-mentioned was used, except that ADP was replaced by THR. The concentrations of THR were 0.1 U, 0.15 U, 0.2 U, 0.23 U, 0.25 U, 0.28 U, 0.30 U and 0.35 U, respectively. […] This was because after a certain concentration of THR was added, soluble fibrinogen converted to […], causing blood coagulation, and platelets were also wrapped by […], resulting in a sharp increase in aggregation rate. […] However, a good disaggregation rate can be achieved when samples were tested immediately after treatment.

In the next data set the test system is platelets. Kind of data set: Induction of platelet aggregation in venous blood by inducers (aggregation rate, impedance channel PLT_I). The class given is cell-based. As to conditions: for time until platelet aggregation reached the maximum degree: after inducer was added, different concentrations. The text has this:
Platelet aggregation can be induced by a variety of substances, thereby leading to blood coagulation. In order to investigate the disaggregation effects of amino group-containing compounds on platelet aggregation induced by different factors, in this example, substances, which can induce platelet aggregation, in the blood coagulation test scheme were selected according to the existing platelet aggregation pathways, and a variety of platelet aggregation models were established. The substances included adenosine diphosphate (ADP), thrombin (THR), collagen (COL) and ristocetin (RIS). […] In addition, the amino group-containing compounds can also effectively disaggregate the platelets having different inducements and aggregation degrees in certain concentration ranges and time ranges.
Specifically, several samples of 1 ml of venous blood were taken, and ADP was added to each sample to make the final concentrations be 0.01 mM, 0.25 mM, 0.5 mM and 1 mM respectively. The blood containing aggregated platelets was tested by using a hematology analyzer. The features including numbers, sizes, etc., of various cell particles in the blood were obtained by means of an impedance channel and an optical channel in the hematology analyzer. Normal blood was collected into blood anticoagulant tubes, and then the number of platelet particles detected by the impedance channel in the hematology analyzer was obtained and recorded as (PLT_I). When platelet aggregation occurred, the volume of a particle of the aggregated platelets was much larger than the volume of a single platelet and therefore the accurate count cannot be achieved by means of a corresponding platelet recognition mechanism. As a result, the platelet count was lowered and recorded as PLT_I (aggregated). No amino group-containing compound was added to the diluent of the impedance channel, thus the impedance channel reflected the degree of platelet aggregation in this aggregation model. The platelet count before aggregation was recorded as PLT_I (unaggregated), the platelet count after aggregation was recorded as PLT_I (aggregated), and the aggregation rate=PLT_I (aggregated)/PLT_I (unaggregated). The number of platelet particles tested by means of the optical channel in the hematology analyzer was obtained and recorded as (PLT_O). […] The platelet count before aggregation was recorded as PLT_O (unaggregated), and the platelet count after aggregation was recorded as PLT_O (undisaggregated). […] On the basis of the above principle, the model was established, and the disaggregation effect of the amino group-containing compound was quantitatively determined.

As to `CC(=O)NC(=N)N` [1-acetylguanidine], the “time after which the disaggregation effect decreased significantly” value is 4 to 8 min in data set [1] and 1 min in data set [5]. Also, the pKa in data set [2] (Example 4) turned out to be 8.33; in data set [2] (Table 4), 8.33; in data set [2] (Table 5), 8.3. The disaggregation rate in data set [3] (FIG. 3, ambient pH varied 7.0-10, after pH increase) was determined as 97.32%; in data set [3] (FIG. 3, ambient pH varied 7.0-10, low end of pH range), 35.23%; in data set [3] (Table 5, pH 9.5, method of Example 1), 97.11%. In addition, the “disaggregation effect on platelet aggregation with various aggregation degrees” value in data set [3] (FIG. 6, 10 mmol/L, pH 9.5, ADP 0.01-1 mM) was “remarkable disaggregation effects”. Also, the disaggregation effect in data set [3] (FIG. 14, 50 mmol/L (total for combination, equal parts), ADP 0.1 mmol/L) is given as 62.14%. Also, in data set [3] (Table 4, pH 10.8, method of Example 1), the Platelet disaggregation rate worked out at 97.35%. In addition, in data set [4], the “time after which the disaggregation rate decreased rapidly” value is reported as 15 min.

Regarding `Nc1ncnc2c1ncn2[C@@H]1O[C@H](COP(=O)(O)OP(=O)(O)O)[C@@H](O)[C@H]1O` [ADP, adenosine diphosphate], the “platelet aggregation achieved at most” value in the data set with platelets (FIG. 5, ADP 0.01 mM) is listed as “about 35%”. Also, the “time until platelet aggregation reached the maximum degree” value with platelets is not above 5 min.

Take collagen: the “degree of platelet aggregation” value in the data set with platelets (FIG. 9, COL at various concentrations (0.05-20 mM)) is recorded as approximately 100%.

As to ristocetin, in the data set on platelets, the “time until platelet aggregation reached the maximum degree” value was in the range of 15 to 20 min.
